Results taken from patent US9770479B2, “Extract of Rehmannia glutinasa Libosch for reducing blood sugar, reducing blood fat, treating leukemia, and preparation method and uses thereof” (priority 2007, dated 2017).
Marks after values point to notes of the source that are not given here.

Key:
HL260 cell = assay: Apoptosis induction / DNA fragments percentage in HL260 cells; assay type: cell-based; conditions: for DNA fragments percentage: n 4
Description: (§1) In order to investigate catalpol and the Rehmannia glutinasa Libosch. extract according to the present invention for their effect of inducing apoptosis in leukemia cells as well as the mechanism, bone marrows and HL260 cells from 15 patients with acute nonlymphocytic leukemia (ANLL) were mixed with catalpol and co-cultivated for 24 hr, and then different test methods including cytomorphologic means, DNA gel electrophoresis and DNA fragments percentage analysis were adopted to observe the effect on apoptosis in leukemia cells.

[1] = test system: acute nonlymphocytic leukemia (ANLL) cell; assay: Apoptosis induction / DNA fragments percentage in ANLL bone marrow cells; assay type: cell-based, human; conditions: for DNA fragments percentage: n 15
Description: as §1

[2] = test system: Alloxan-Induced Hyperglycemic Mice; assay: Blood glucose in alloxan-induced hyperglycemic mice; assay type: in vivo, Kunming mice; conditions: 500 mg/Kg intragastric daily
Description: Male Kunming mice weighing 25-29 g
Raising condition: The mice were housed in a laboratory animal room of 2nd grade that was ventilated regularly with the temperature controlled at 20-24° C.
Male mice were selected and firstly fasted for 6 hr, and alloxan was injected into tail vein at a dose of 60 mg/kg. After 72 hr, the mice having blood glucose values […] were selected as experimental animals and grouped.
The alloxan-induced hyperglycemic mice were randomly divided into groups labeled as normal control, model control, low-dose A, mid-dose A, high-dose A, DD, B, C, D, E and F. Subsequently, intragastric administration was performed for 15 consecutive days. 16 hours after the last administration, the mice were fasted for 8 hr. Blood glucose values before administration, and at 1 hour after administration for 5 days, 10 day and 15 days were tested respectively on blood collected from the inguinal vein, and the results were as follows: […]

[3] = test system: Spontaneous Hyperglycemic KK Mice; assay: Blood glucose in spontaneous hyperglycemic KK mice (type II diabetes model); assay type: in vivo; conditions: 500 mg/kg intragastric once a day
Description: Forty male and female KK diabetes mice weighing about 40 g were separately housed at a temperature of […] and fed on a fat-heavy diet and arbitrary amount of water. After being fast food but not fast water for 2 hr, 10 μl blood collected from the tail veins was tested for blood glucose values, and mice having blood glucose value ≧8.0 mmol/L were selected.
The mice obtained from the above step were randomly divided into groups labeled as model control, low-dose A, mid-dose A, high-dose A, DD, B, C, D, E and F. Subsequently, intragastric administration was performed once a day for 15 consecutive days. Blood glucose values before administration, and at one hour after administration for 5 days, 10 day and 15 days (fast food but not fast water for two hours after last administration) were tested respectively, and the results were as follows: […]

bcl22 = assay: Immunohistochemical protein expression of gene bcl22 in bone marrow cells; assay type: cell-based, human; conditions: bone marrow cells before and after treatment; immunohistochemical method
Description: as §1

[4] = table section 'after treating with the extract for 24 hrs', 10 μg · ml^−1
[5] = table section 'at 24 hrs after treatment with catalpol', 10 μg · ml^−1
[6] = table section 'after treating with the extract for 24 hrs', 10 − 7 mol · L^−1
[7] = table section 'at 24 hrs after treatment with catalpol', 10 − 7 mol · L^−1
[8] = co-cultivated 24 hr, cytomorphology, DNA gel electrophoresis, DNA fragments percentage

Nc1ccn([C@@H]2O[C@H](CO)[C@@H](O)[C@@H]2O)c(=O)n1 [Ara2c]
DNA fragments percentage (HL260 cell; [4]): 27.0 ± 1.1%
DNA fragments percentage (HL260 cell; [5]): 28.2 ± 1.4%
DNA fragments percentage [1, 4]: 39.7 ± 7.9%
DNA fragments percentage [1, 5]: 40.1 ± 8.2%

CN(C)C(=N)NC(=N)N [DD, dimethyl diguanidine]
Blood Glucose Value ([2]; 0 day (before administration)): 19.7 mmol/L
Blood Glucose Value ([2]; 5 days): 12.5** mmol/L
Blood Glucose Value ([2]; 10 days): 13.2** mmol/L
Blood Glucose Value ([2]; 15 days): 14.0** mmol/L
Blood Glucose Value ([3]; 0 day (before administration)): 13.36 ± 2.85 mmol/L
Blood Glucose Value ([3]; 5 days): 11.16 ± 3.19 mmol/L
Blood Glucose Value ([3]; 10 days): 10.03 ± 2.11 mmol/L
Blood Glucose Value ([3]; 15 days): 8.84 ± 4.51 mmol/L

COC(=O)C[C@](O)(CCCC(C)(C)O)C(=O)O[C@@H]1C(OC)=C[C@]23CCCN2CCc2cc4c(cc2[C@H]13)OCO4 [HHT]
DNA fragments percentage (HL260 cell; [6]): 25.3 ± 1.0%
DNA fragments percentage (HL260 cell; [7]): 26.1 ± 1.2%
DNA fragments percentage [1, 6]: 36.2 ± 5.0%
DNA fragments percentage [1, 7]: 38.1 ± 5.1%

OC[C@H]1O[C@@H](O[C@@H]2OC=C[C@H]3[C@H](O)[C@@H]4O[C@]4(CO)[C@@H]23)[C@H](O)[C@@H](O)[C@@H]1O [catalpol]
induction of apoptosis (HL260 cell; [8]): able to induce apoptosis
protein expression of gene bcl22 (bcl22): obviously lowered
induction of apoptosis [1, 8]: able to induce apoptosis
